In patent publication US20250074890A1, “CYANOPYRIDINE AND CYANOPYRIMIDINE BCL6 DEGRADERS” (DANA-FARBER CANCER INSTITUTE, INC., priority 2021, published 2025):

biological target: T1, BCL6 (Homo sapiens, UniProt P41182); assay: HiBiT cellular degradation assay in Su-DHL-4 cells; format: cell-based; conditions: concentration to reach 50% degradation of endogenous SmBiT-tagged BCL6, 24 hours of compound treatment
T1 construct: Endogenous BCL6 was tagged with the 11-amino acid SmBiT through CRISPR/Cas9 gene editing; endogenous in cells; host or cells: Su-DHL-4 (CRISPR/Cas9 knock-in, single cell clone)
Procedure: DC50 (concentration to reach 50% degradation) values were determined from a cellular degradation assay (HiBiT, Promega™) in Su-DHL-4 cells (Table 1). Endogenous BCL6 was tagged with the 11-amino acid SmBiT through CRISPR/Cas9 gene editing and single cell clone selection. After 24 hours of compound treatment, cells were lysed and incubated with LgBiT protein to reconstitute intact nanoluciferase. Substrate was then added and relative luciferase units were measured. Degradation levels for each treatment were taken as a percentage compared to the control, 100% DMSO (Prism).

Compound | DC50 [nM]
CC(O)CCn1c(=O)n(C)c2ccc(Nc3nc(N4C[C@H](CCO)[C@@H](F)[C@H](C)C4)c(C#N)cc3F)cc21 (stereo partly drawn) [Compound 57, 5-fluoro-2-[(3S,4S,5R)-4-fluoro-3-(2-hydroxyethyl)-5-methyl-1-piperidyl]-6-[[3-(3-hydroxybutyl)-1-methyl-2-oxo-benzimidazol-5-yl]amino]pyridine-3-carbonitrile] | > 400
C[C@@H]1CN(c2nc(Nc3ccc4c(c3)cc(OCC3(C)COC3)c(=O)n4C)c(Cl)cc2C#N)C[C@H](C)C1(F)F [Compound 9, 5-Chloro-2-((3R,5S)-4,4-difluoro-3,5-dimethylpiperidin-1-yl)-6-((1-methyl-3-((3-methyloxetan-3-yl)methoxy)-2-oxo-1,2-dihydroquinolin-6-yl)amino)nicotinonitrile] | > 400
CNC(=O)COc1cc2cc(Nc3ncc(C#N)c(N4C[C@H](CCO)C(F)(F)[C@H](C)C4)n3)ccc2n(C)c1=O [Compound 3, 2-((6-((5-Cyano-4-((3S,5R)-4,4-difluoro-3-(2-hydroxyethyl)-5-methylpiperidin-1-yl)pyrimidin-2-yl)amino)-1-methyl-2-oxo-1,2-dihydroquinolin-3-yl)oxy)-N-methylacetamide] | 3
CNCC(O)Cn1c(=O)c(OCC(=O)NC)cc2cc(Nc3nc(N4C[C@@H](C)C(F)[C@@H](C)C4)c(C#N)cc3Cl)ccc21 (stereo partly drawn) [Compound 67, 2-((6-((3-Chloro-5-cyano-6-((3S,4S,5R)-4-fluoro-3,5-dimethylpiperidin-1-yl)pyridin-2-yl)amino)-1-(2-hydroxy-3-(methylamino)propyl)-2-oxo-1,2-dihydroquinolin-3-yl)oxy)-N-methylacetamide] | 4
C[C@H]1CN(c2nc(Nc3ccc4c(c3)n(CCC(C)(C)O)c(=O)n4C)c(Cl)cc2C#N)C[C@@H](N)C1(F)F (single isomer, unassigned) [Compound 49] | > 400

Other lines, results leading:

DC50 [nM] | Compound
> 400 | C[C@@H]1CN(c2nc(Nc3ccc4c(c3)cc(OC[C@@H]3CNCCO3)c(=O)n4C)c(Cl)cc2C#N)C[C@H](C)[C@@H]1F [Compound 70, 5-Chloro-2-((3S,4S,5R)-4-fluoro-3,5-dimethylpiperidin-1-yl)-6-((1-methyl-3-((S)-morpholin-2-ylmethoxy)-2-oxo-1,2-dihydroquinolin-6-yl)amino)nicotinonitrile]
> 400 | C[C@H]1CN(c2nc(Nc3ccc4c(c3)n(CCC(C)(C)O)c(=O)n4C)c(Cl)cc2C#N)C[C@@H](O)C1(F)F [Compound 75, 5-chloro-2-((3R,5S)-4,4-difluoro-3-hydroxy-5-methylpiperidin-1-yl)-6-((3-(3-hydroxy-3-methylbutyl)-1-methyl-2-oxo-2,3-dihydro-1H-benzo[d]imidazol-5-yl)amino)nicotinonitrile]
4 | CNC(=O)COc1cc2cc(Nc3nc(N4CC(C)CC(O)C4)c(C#N)cc3Cl)ccc2n(CCN(C)C)c1=O (stereo not shown) [Compound 76, 2-((6-((3-Chloro-5-cyano-6-(3-hydroxy-5-methylpiperidin-1-yl)pyridin-2-yl)amino)-1-(2-(dimethylamino)ethyl)-2-oxo-1,2-dihydroquinolin-3-yl)oxy)-N-methylacetamide]
4 | CNC(=O)COc1cc2cc(Nc3nc(N4C[C@@H](C)C(F)[C@@H](C)C4)c(C#N)cc3Cl)ccc2n(CCN2CCOCC2)c1=O (stereo partly drawn) [Compound 68, 2-[[6-[[3-Chloro-5-cyano-6-[(3R,5S)-4-fluoro-3,5-dimethyl-1-piperidyl]-2-pyridyl]amino]-1-(2-morpholinoethyl)-2-oxo-3-quinolyl]oxy]-N-methyl-acetamide]
80 | C[C@@H]1CN(c2nc(Nc3ccc4c(c3)n(C[C@@H]3COC(=O)N3)c(=O)n4C)c(F)cc2C#N)C[C@H](C)[C@@H]1F [Compound 88, 5-Fluoro-2-((3S,4S,5R)-4-fluoro-3,5-dimethylpiperidin-1-yl)-6-((1-methyl-2-oxo-3-(((R)-2-oxooxazolidin-4-yl)methyl)-2,3-dihydro-1H-benzo[d]imidazol-5-yl)amino)nicotinonitrile]
